# In publication PMC8190279, “Spatiotemporal imaging and pharmacokinetics of fluorescent compounds in zebrafish eleuthero-embryos after different routes of administration” (Scientific Reports, 2021):
# Key:
# [1] = tested on: 3 dpf zebrafish eleuthero-embryos; test: Spatiotemporal fluorescence imaging after immersion, microinjection (PC, IP, IY) or combination; format: in vivo, Danio rerio
# Description: We then determined the spatiotemporal distribution of the fluorescent compounds. The eleuthero-embryos were exposed to the dyes by immersion or microinjection in the pericardial cavity (PC), intraperitoneally (IP) and in the yolk sac (IY) for 48 h starting from 3 dpf on, i.e. after hatching, thus avoiding the presence of the chorion that has been reported as a potential barrier for the absorption of compounds[21],[27].
# At specific time periods after treatment, the eleuthero-embryos were immobilized by hypothermia and fluorescent microscope pictures were taken.
# 3 dpf zebrafish eleuthero-embryos wildtype AB (n = 10 per compound) randomly selected were immersed using 6-well-plates (5 mL per well) of Danieau’s medium with a final DMSO concentration of 0.1% (v/v), containing the compounds at a concentration of 10 µM. Vehicle-treated control eleuthero-embryos were exposed to Danieau’s medium supplemented with 0.1% v/v DMSO.
# 3 dpf zebrafish eleuthero-embryos wildtype AB (n = 10 per compound) randomly selected were immobilized by cooling to 4 °C and positioned on 1% (w/v) agarose plates at room temperature. All compounds were microinjected using glass needles fitted to a micromanipulator (MM-33) connected to a gas pressure microinjector (Eppendorf Femtojet set - AG 22331 Hamburg). Glass capillaries (W/FIL 1.0MM 4 in TW 100F-4) were pulled (Sutter Instrument CO. Model P-87 Cat N B100-58-15 Filament: FB330B – FB320B) by using program 5 (Heat 829, Pull 158, Vel 100, Time 150). Needles were filled with compounds dissolved in vehicle (DMSO/saline (1:1)). Microinjections were performed into the pericardial cavity (PC)[47], into the yolk sac (IY)[35], or into the peritoneal cavity (IP) at a volume of 1 nL and a dose of 2 mg/kg. For the intraperitoneal microinjection, the eleuthero-embryos were positioned in lateral right recumbence under a dissecting microscope. By using a micromanipulator, the needle was inserted posteriorly and ventrolateral to the swim bladder in the peritoneal cavity. Afterwards the eleuthero-embryos were transferred to 6-well plates. Control eleuthero-embryos were exposed to vehicle only.
# 3 dpf zebrafish eleuthero-embryos wildtype AB (n = 10 per compound) randomly selected were immobilized and positioned on 1% (w/v) agarose plates. All compounds were microinjected using glass needles, as previously described into the PC cavity. Afterwards, the larvae were selected and transferred to a 6-well-plate, into its corresponding compound at 10 µM.
# The thus-treated eleuthero-embryos were kept in the incubator at 28.5 °C (in darkness) and taken out shortly at defined time points (15’, 1 h, 3 h, 6 h, 24 h and 48 h) for image analysis.
# Eleuthero-embryos were immobilized by hypothermia, rinsed three times with Danieau’s medium, and positioned latero-lateral (right lateral recumbency) in a drop of agarose (0.1%). To acquire images, a Leica MZ10F fluorescent stereomicroscope with a 4.0 × planapochromatic objective (10447243) was used, equipped with a Digital Color Camera Leica DFC310 FX (Software LAS 4.13). Filter sets were GFP 10446222 in case of compound FAMA, dSRED 10447079 in case of S-CY3A, CY3A and TAMRA, and CY5 10446366 in case of S-CY5.5A and S-CY5A. After manual delineation of the whole body (WB) contours of the zebrafish eleuthero-embryos using MetaMorph (Microscopy Automation & Image Analysis Software V.7.8.00), the fluorescence in the selected area was quantified as integrated fluorescence intensity (RFU) that adds up all fluorescence intensity values of the individual pixels. In case of the combination treatment the same correction factor for exposure time from the camera setting was applied in the case of FAMA and TAMRA, to avoid saturation of the images (Supplementary information. Figure S1)[48]. The selected images shown in the Figs. 1, 2, 3, 4, 5, 6 and 7 were arranged using MS PowerPoint (Microsoft Corporation, Seattle, USA) and the open-source GIMP (version 2.10.24 www.gimp.org 2021) software. […]
# [2] = tested on: 3 dpf zebrafish eleuthero-embryos; test: Whole-body fluorescence quantification and 1-compartment PK modelling; format: in vivo, Danio rerio; details: for ke (total elimination rate constant): 1-compartment model fitted to all routes (immersion 10 µM, PC/IP 2 mg/kg, combination), 0-48 h; for Q (passive exchange with the medium) / t1/2 (elimination half-life, ln(2)/ke): 1-compartment model, zebrafish eleuthero-embryo; for Comparison of passive exchange with the medium (Q) among compounds: ranking in words
# Description: We then quantified the relative amount of compound present in the zebrafish eleuthero-embryos by assessing the integrated fluorescence intensity of delineated whole-body contours present in the fluorescence images (Figs. 1, 2, 3, 4, 5, 6, 7).
# The total measured fluorescence was proportional to total amount of compound present in the animal, as described by Eq. (1). RFUT denotes the sum of fluorescence intensity in the overall image, A denotes the amount of drug in the zebrafish, and FLUOR is a constant denoting the compound-specific fluorescence quantum yield.1 RFUT=FLUOR∗A
# Simplifying by substitution of ke=Q+CL/V :3 dA/dt=-ke∗A+QM
# Next, data fitting was performed with the following mathematical model:4 At=Dose∗e^-ket+MQ/ke(1-e^-ket) with Dose the injected dose (mg/kg), M the concentration in the medium (mg/L), Q the passive exchange with the medium (L/h) and ke the total elimination rate constant (h^−1). When administering the compound through immersion, the injected dose is 0 mg/kg. When injecting the compound, the concentration in medium is 0. This model was fitted to all available data using non-linear regression in R version 4.0.3.
# Residual error plots were used to identify observations with poor fit.
# The designed model was optimized by a non-linear least squares modelling, using Gauss–Newton algorithms under the method of iterative fashion, with R version 4.0.3, using stats::nls[50].
# [3] = Experimental lipophilicity (LogD), shake-flask method with UHPLC; details: n-octanol / Danieau's solution, 10 µM compound
# Description: Briefly, 10 µM of compound was shaken in a mixture of two mobile phases, n-octanol and Danieau’s solution (eleuthero-embryo medium) and analysed with UHPLC.
# The lipophilicity of the fluorescent compounds was determined following the EPA guideline OPPTS 830.7550 Partition coefficient (shake flask method)[46] using Danieau’s solution and n-octanol as the two immiscible phases. Analyses were performed using an Agilent Infinity 1290 UHPLC system (Agilent Technologies, Waldbronn, Germany) consisting of an autosampler, quaternary pump and DAD-detector, operated with Open Lab software (version C.01.10, Agilent Technologies). […] All compounds were detected and quantified at 390 nm. For the quantification of the compounds, calibration samples were made in 50:50 ACN:MilliQ water for the compounds analysed in RPLC and 95:5 ACN:MilliQ water for compounds analysed in HILIC. […] The variation (calculated as the relative standard deviation, %RSD) for 3 injections was always below 10% (for all considered concentrations) and R^2 values of the calibration curves were all above 0.998. All calculations concerning the evaluation of the recorded data were made in MS Excel (Microsoft Corporation, Seattle, USA). […]
Molecule,Intra-fish distribution after pericardial (PC) microinjection ([1]; PC microinjection 2 mg/kg),"Level and intra-body fluorescence distribution at 48 h, combination (immersion + PC) compared with PC microinjection ([1]; immersion 10 µM + PC 2 mg/kg, 48 h)","Uptake after immersion (fluorescence imaging) ([1]; immersion 10 µM, 0-48 h from 3 dpf)",ke (total elimination rate constant) [2],Q (passive exchange with the medium) [2],"t1/2 (elimination half-life, ln(2)/ke) [2]",LogD [3],"Level and intra-body fluorescence distribution at 48 h, combination (immersion + PC) compared with PC microinjection ([1]; in vivo)","Additional effect of immersion route on intrabody exposure in combination treatment (RC3h) ([2]; 3 h exposure, immersion 10 µM + PC 2 mg/kg)",Comparison of passive exchange with the medium (Q) among compounds [2],Intra-fish distribution after pericardial (PC) microinjection ([1]; in vivo)
"C#CCNC(=O)c1ccc(-c2c3ccc(=[N+](C)C)cc-3oc3cc(N(C)C)ccc23)c(C(=O)[O-])c1 (single isomer, unassigned) [TAMRA, Tamra alkyne 5-isomer]",rapidly distributed to the vasculature,altered,gradually taken up over time,0.052 h⁻¹,1.45 L/h × 10^−9,13.35 h,0.46,,,,
"C#CCNC(=O)CCCCCN1C(=CC=CC2=[N+](C)c3ccccc3C2(C)C)C(C)(C)c2ccccc21.[Cl-] [CY3A, Cyanine3 alkyne]",,,,0.049 h⁻¹,8.37 L/h × 10^−9,13.92 h,1.73,altered,to a limited degree,taken up the fastest,
"C#CCNC(=O)c1ccc2c(c1)C(=O)OC21c2ccc(O)cc2Oc2cc(O)ccc21 [FAMA, FAM alkyne, 5-isomer]",,,,,1.71 L/h × 10^−9,57.41 h,,,,,rapidly distributed to the vasculature
"C#CCNC(=O)CCCCCN1/C(=C/C=C/C=C/C2=[N+](C)c3ccc4c(S(=O)(=O)[O-])cc(S(=O)(=O)[O-])cc4c3C2(C)C)C(C)(C)c2c1ccc1c(S(=O)(=O)[O-])cc(S(=O)(=O)[O-])cc21.[K+].[K+].[K+] [S-CY5.5A, Sulfo-cyanine 5.5 alkyne]",,,,0.023 h⁻¹,0.34 L/h × 10^−9,30.26 h,,,,slowest one to be exchanged,rapidly distributed to the vasculature
Sulfo-cyanine 3 alkyne [S-CY3A],,,,0.012 h⁻¹,0.23 L/h × 10^−9,57.40 h,,,,,rapidly distributed to the vasculature
Sulfo-cyanine 5 alkyne [S-CY5A],,,,0.014 h⁻¹,1.61 L/h × 10^−9,50.41 h,,altered,,,rapidly distributed to the vasculature
